Test results reported in PubChem BioAssay AID1918955 (Molecular Pharmacology Branch, DTP, NCI, 2023).
Several values for one entry are separate records, joined by “and”; a condition that tells them apart may be missing. Identical values can stand only once. Values belong to the compound of their own block, whether it stands above or below them.

Test system: NCI/ADR-RES complex spheroid viability
Experiment: Anticancer human tumor NCI/ADR-RES cell line growth inhibition;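 for viability, T/C: 100% = DMSO vehicle treated spheroids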
Settings: for viability, T/C: stronger effect = lower value
Method in brief: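 Complex spheroids of tumor cells with HUVEC and human MSCs, exposed to iadademstat combined with other agents. Each agent tested in half-log steps from near clinical Cmax (else 10 microM top), DMSO ≤0.25%.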

[1] = curve of first compound, second compound 0.1 µM
[2] = curve of first compound, second compound 0.316 µM
[3] = curve of first compound, second compound 1 µM
[4] = curve of first compound, second compound 3.16 µM
[5] = curve of first compound, second compound 10 µM
[6] = second compound 0.1 µM, first compound 0.00316 µM
[7] = second compound 0.1 µM, first compound 0.01 µM
[8] = second compound 0.1 µM, first compound 0.0316 µM
[9] = second compound 0.1 µM, first compound 0.1 µM
[10] = second compound 0.316 µM, first compound 0.00316 µM
[11] = second compound 0.316 µM, first compound 0.01 µM
[12] = second compound 0.316 µM, first compound 0.0316 µM
[13] = second compound 0.316 µM, first compound 0.1 µM
[14] = second compound 1 µM, first compound 0.00316 µM
[15] = second compound 1 µM, first compound 0.01 µM
[16] = second compound 1 µM, first compound 0.0316 µM
[17] = second compound 1 µM, first compound 0.1 µM
[18] = second compound 3.16 µM, first compound 0.00316 µM
[19] = second compound 3.16 µM, first compound 0.01 µM
[20] = second compound 3.16 µM, first compound 0.0316 µM
[21] = second compound 3.16 µM, first compound 0.1 µM
[22] = second compound 10 µM, first compound 0.00316 µM
[23] = second compound 10 µM, first compound 0.01 µM
[24] = second compound 10 µM, first compound 0.0316 µM
[25] = second compound 10 µM, first compound 0.1 µM
[26] = second compound 0.1 µM, first compound 0.00949 µM
[27] = second compound 0.1 µM, first compound 0.03 µM
[28] = second compound 0.1 µM, first compound 0.0949 µM
[29] = second compound 0.1 µM, first compound 0.3 µM
[30] = second compound 0.1 µM, first compound 0.949 µM
[31] = second compound 0.1 µM, first compound 3 µM
[32] = second compound 0.316 µM, first compound 0.00949 µM
[33] = second compound 0.316 µM, first compound 0.03 µM
[34] = second compound 0.316 µM, first compound 0.0949 µM
[35] = second compound 0.316 µM, first compound 0.3 µM
[36] = second compound 0.316 µM, first compound 0.949 µM
[37] = second compound 0.316 µM, first compound 3 µM
[38] = second compound 1 µM, first compound 0.00949 µM
[39] = second compound 1 µM, first compound 0.03 µM
[40] = second compound 1 µM, first compound 0.0949 µM
[41] = second compound 1 µM, first compound 0.3 µM
[42] = second compound 1 µM, first compound 0.949 µM
[43] = second compound 1 µM, first compound 3 µM
[44] = second compound 3.16 µM, first compound 0.00949 µM
[45] = second compound 3.16 µM, first compound 0.03 µM
[46] = second compound 3.16 µM, first compound 0.0949 µM
[47] = second compound 3.16 µM, first compound 0.3 µM
[48] = second compound 3.16 µM, first compound 0.949 µM
[49] = second compound 3.16 µM, first compound 3 µM
[50] = second compound 10 µM, first compound 0.00949 µM
[51] = second compound 10 µM, first compound 0.03 µM
[52] = second compound 10 µM, first compound 0.0949 µM
[53] = second compound 10 µM, first compound 0.3 µM
[54] = second compound 10 µM, first compound 0.949 µM
[55] = second compound 10 µM, first compound 3 µM

Structure (SMILES): O=C(C=Cn1cnc(-c2cc(C(F)(F)F)cc(C(F)(F)F)c2)n1)NNc1cnccn1 + NC1CCC(NC2CC2c2ccccc2)CC1
IC50 [1]: 6.5 nM
IC50 [2]: 5.82 nM
IC50 [3]: 5.77 nM
IC50 [4]: 4.94 nM
IC50 [5]: 3.46 nM
viability, T/C [6]: 80.1%
viability, T/C [7]: 29.1%
viability, T/C [8]: 17.7%
viability, T/C [9]: 13.6%
viability, T/C (second compound 0.1 µM, first compound 0.316 µM): 5.76%
viability, T/C (second compound 0.1 µM, first compound 1 µM): 2.44%
viability, T/C [10]: 72.3%
viability, T/C [11]: 26.2%
viability, T/C [12]: 18.8%
viability, T/C [13]: 21.9%
viability, T/C (second compound 0.316 µM, first compound 0.316 µM): 4.73%
viability, T/C (second compound 0.316 µM, first compound 1 µM): 1.86%
viability, T/C [14]: 72.3%
viability, T/C [15]: 27.6%
viability, T/C [16]: 17.8%
viability, T/C [17]: 11.6%
viability, T/C (second compound 1 µM, first compound 0.316 µM): 8.01%
viability, T/C (second compound 1 µM, first compound 1 µM): 3.34%
viability, T/C [18]: 65%
viability, T/C [19]: 24.6%
viability, T/C [20]: 15.9%
viability, T/C [21]: 7.79%
viability, T/C (second compound 3.16 µM, first compound 0.316 µM): 4.6%
viability, T/C (second compound 3.16 µM, first compound 1 µM): 2.43%
viability, T/C [22]: 52.9%
viability, T/C [23]: 20.5%
viability, T/C [24]: 9.74%
viability, T/C [25]: 5.15%
viability, T/C (second compound 10 µM, first compound 0.316 µM): 3.07%
viability, T/C (second compound 10 µM, first compound 1 µM): 1.56%

Structure (SMILES): CC(C)CC(NC(=O)C(Cc1ccccc1)NC(=O)c1cnccn1)B(O)O (stereo not drawn) + NC1CC1c1ccc(-c2cccc(O)c2)cc1
IC50 [1]: 12.2 nM
IC50 [2]: 12.7 nM
IC50 [3]: 14.2 nM
IC50 [4]: 12.2 nM
IC50 [5]: 11.8 nM
viability, T/C (second compound 0.1 µM, first compound 0.000316 µM): 110%
viability, T/C (second compound 0.1 µM, first compound 0.001 µM): 102%
viability, T/C [6]: 92.2%
viability, T/C [7]: 61%
viability, T/C [8]: 6.87%
viability, T/C [9]: 0.38%
viability, T/C (second compound 0.316 µM, first compound 0.000316 µM): 103%
viability, T/C (second compound 0.316 µM, first compound 0.001 µM): 103%
viability, T/C [10]: 94.6%
viability, T/C [11]: 61.7%
viability, T/C [12]: 6.88%
viability, T/C [13]: 0.32%
viability, T/C (second compound 1 µM, first compound 0.000316 µM): 106%
viability, T/C (second compound 1 µM, first compound 0.001 µM): 99.4%
viability, T/C [14]: 93.5%
viability, T/C [15]: 69%
viability, T/C [16]: 7.3%
viability, T/C [17]: 0.37%
viability, T/C (second compound 3.16 µM, first compound 0.000316 µM): 97.6%
viability, T/C (second compound 3.16 µM, first compound 0.001 µM): 98.8%
viability, T/C [18]: 87%
viability, T/C [19]: 58.2%
viability, T/C [20]: 14.1%
viability, T/C [21]: 0.23%
viability, T/C (second compound 10 µM, first compound 0.000316 µM): 90.5%
viability, T/C (second compound 10 µM, first compound 0.001 µM): 88.8%
viability, T/C [22]: 75.4%
viability, T/C [23]: 59.6%
viability, T/C [24]: 8.55%
viability, T/C [25]: 0.36%

IC50 (curve of compound): > 10000 nM
Structure (SMILES): CC(C)c1c(-c2ccccc2)nc2c(C#N)c[nH]n2c1=O
viability, T/C (compound 0.0316 µM): 103% and 102%
viability, T/C (compound 0.1 µM): 99.6% and 94.7%
viability, T/C (compound 0.316 µM): 96.5% and 96.3%
viability, T/C (compound 1 µM): 104%
viability, T/C (compound 3.16 µM): 98.6% and 93.1%
viability, T/C (compound 10 µM): 94.6% and 96.8%

Structure (SMILES): Nc1ccccc1NC(=O)c1ccc(CNC(=O)OCc2cccnc2)cc1 + NC1CC1c1ccc(-c2cccc(O)c2)cc1
IC50 [1]: 824 nM
IC50 [2]: 907 nM
IC50 [3]: 906 nM
IC50 [4]: 976 nM
IC50 [5]: 882 nM
viability, T/C [26]: 93.7%
viability, T/C [27]: 97.9%
viability, T/C [28]: 85.7%
viability, T/C [29]: 69.1%
viability, T/C [30]: 48.3%
viability, T/C [31]: 27.2%
viability, T/C [32]: 99.2%
viability, T/C [33]: 95.9%
viability, T/C [34]: 95%
viability, T/C [35]: 72.8%
viability, T/C [36]: 50.3%
viability, T/C [37]: 25.8%
viability, T/C [38]: 93.3%
viability, T/C [39]: 91.1%
viability, T/C [40]: 85.3%
viability, T/C [41]: 71.5%
viability, T/C [42]: 49.1%
viability, T/C [43]: 26.7%
viability, T/C [44]: 93.5%
viability, T/C [45]: 89.5%
viability, T/C [46]: 80.5%
viability, T/C [47]: 71%
viability, T/C [48]: 49.4%
viability, T/C [49]: 30.8%
viability, T/C [50]: 83.4%
viability, T/C [51]: 84.1%
viability, T/C [52]: 74.7%
viability, T/C [53]: 60.9%
viability, T/C [54]: 51.3%
viability, T/C [55]: 31%

IC50 (curve of compound): 605 nM and 791 nM
Structure (SMILES): NS(=O)(=O)OCC1CC(n2ccc3c(NC4CCc5ccccc54)ncnc32)CC1O (stereo not drawn)
viability, T/C (compound 0.00949 µM): 94% and 94.6%
viability, T/C (compound 0.03 µM): 91% and 98.8%
viability, T/C (compound 0.0949 µM): 87.3% and 86.9%
viability, T/C (compound 0.3 µM): 72.3% and 74.8%
viability, T/C (compound 0.949 µM): 35.7% and 45.3%
viability, T/C (compound 3 µM): 14.5% and 17.2%

IC50 (curve of compound): < 0.949 nM
Structure (SMILES): CCc1c2c(nc3ccc(O)cc13)-c1cc3c(c(=O)n1C2)COC(=O)[C@]3(O)CC
viability, T/C (compound 0.000949 µM): 4.28% and 3.34%
viability, T/C (compound 0.003 µM): 2.36% and 1.64%
viability, T/C (compound 0.00949 µM): 0.57% and 0.82%
viability, T/C (compound 0.03 µM): 6.31% and 0.48%
viability, T/C (compound 0.0949 µM): 0.34% and 0.47%
viability, T/C (compound 0.3 µM): 0.83% and 0.64%

Structure (SMILES): NS(=O)(=O)OCC1CC(n2ccc3c(NC4CCc5ccccc54)ncnc32)CC1O (stereo not drawn) + NC1CCC(NC2CC2c2ccccc2)CC1
IC50 [1]: 986 nM
IC50 [2]: 890 nM
IC50 [3]: 740 nM
IC50 [4]: 660 nM
IC50 [5]: 353 nM
viability, T/C [26]: 99.1%
viability, T/C [27]: 98.9%
viability, T/C [28]: 84.9%
viability, T/C [29]: 73.8%
viability, T/C [30]: 52.3%
viability, T/C [31]: 14.4%
viability, T/C [32]: 99.2%
viability, T/C [33]: 92.4%
viability, T/C [34]: 87.5%
viability, T/C [35]: 74.7%
viability, T/C [36]: 47.9%
viability, T/C [37]: 15.7%
viability, T/C [38]: 109%
viability, T/C [39]: 95.6%
viability, T/C [40]: 86.5%
viability, T/C [41]: 70.3%
viability, T/C [42]: 43.3%
viability, T/C [43]: 16.8%
viability, T/C [44]: 93.6%
viability, T/C [45]: 93%
viability, T/C [46]: 86.2%
viability, T/C [47]: 70.8%
viability, T/C [48]: 40.4%
viability, T/C [49]: 20.4%
viability, T/C [50]: 87.3%
viability, T/C [51]: 86.8%
viability, T/C [52]: 73.8%
viability, T/C [53]: 50.5%
viability, T/C [54]: 31.3%
viability, T/C [55]: 7.61%

IC50 (curve of compound): > 10000 nM
Structure (SMILES): O=C(c1cc(Cc2n[nH]c(=O)c3ccccc23)ccc1F)N1CCN(C(=O)C2CC2)CC1
viability, T/C (compound 0.0316 µM): 102%
viability, T/C (compound 0.1 µM): 102% and 99.6%
viability, T/C (compound 0.316 µM): 104% and 102%
viability, T/C (compound 1 µM): 105% and 97.3%
viability, T/C (compound 3.16 µM): 90.7% and 95.4%
viability, T/C (compound 10 µM): 89.6% and 85%
